Measurements: the RepoRT retention time repository (doi:10.1021/acs.analchem.2c02893)

Assay: RP, Thermo Scientific Acclaim RSLC 120 C18, 100 × 2.1 mm, 2.2 µm, 30 °C, 0.2 mL/min, estimated dead time 1.1 min; A: 90% water + 10% methanol + 0.01% formic acid + 5 mM ammonium formate, pH 3.61; B: methanol + 0.01% formic acid + 5 mM ammonium formate, pH 3.61; gradient (min/%B) 0/1 1/1 2/39 13/99.9 15/99.9 15.1/1 20.1/1
Settings: stereoisomer not certain

In order of rising LC retention time:
1. CN1CCC23c4c5ccc(O)c4OC2C(=O)CCC3(O)C1C5 (centres undefined) [Oxymorphone]  2.75 min
2. O=C(O)c1nc(Cl)ccc1Cl [Clopyralid]  3.06 min
3. COP(=O)(NC(C)=O)SC (centres undefined) [Acephate]  3.11 min
4. Clc1ccc2nsnc2c1NC1=NCCN1 [Tizanidine]  3.64 min
5. NS(=O)(=O)c1ccc(N2CCCCS2(=O)=O)cc1 [Sulthiame]  4.11 min
6. CCN(CC)CC(C)(C)COC(=O)c1ccc(N)cc1 [Dimethocain]  4.24 min
7. CC(O)Cn1cnc2c1c(=O)n(C)c(=O)n2C (centres undefined) [Proxyphylline]  4.34 min
8. N=C1NC(=O)C(c2ccccc2)O1 (centres undefined) [Pemoline]  4.34 min
9. Cc1cc(NS(=O)(=O)c2ccc(NO)cc2)no1 [Sulfamethoxazole hydroxylamine]  4.54 min
10. Cc1c(NC(=O)c2cccnc2)c(=O)n(-c2ccccc2)n1C [Nifenazone]  4.56 min
11. CNC1(c2ccccc2Cl)CCCCC1=O (centres undefined) [Ketamine]  4.61 min
12. C#CCN(C)C(C)Cc1ccccc1 (centres undefined) [Deprenyl / Selegiline]  4.68 min
13. CCC(C)CC(C)N (centres undefined) [DMAA (Methylhexanamine)]  4.68 min
14. Cc1ccc(C(=O)C(C)N2CCCC2)cc1 (centres undefined) [MePPP (4-4-Methyl-pyrrolidinopropiophenone)]  4.76 min
15. CC(N)Cc1ccc2ccoc2c1 (centres undefined) [Benzofuran-6-ylpropan-2-amine<U+00A0>(6-APB)]  4.81 min
16. Cc1ncc(CSSCc2cnc(C)c(O)c2CO)c(CO)c1O [Pyritinol]  5.54 min
17. N#CN=C1SCCN1Cc1ccc(Cl)nc1 [Thiacloprid]  5.62 min
18. Nc1c(Br)cc(Br)cc1CNC1CCC(O)CC1 (centres undefined) [Ambroxol]  6.04 min
19. COc1cc(CCN)c(OC)cc1I [2C-I]  6.06 min
20. CC1c2cccc(O)c2C(O)=C2C(=O)C3(O)C(O)=C(C(N)=O)C(=O)C(N(C)C)C3C(O)C21 (centres undefined) [Doxycycline]  6.2 min
21. CN(C)CCC(c1ccc(Cl)cc1)c1ccccn1 (centres undefined) [Chlorpheniramine]  6.25 min
22. Nc1ncnc2c1ncn2Cc1c(F)cccc1Cl [Arprinocid]  6.7 min
23. CCOC(=O)C(CCc1ccccc1)NC(C)C(=O)N1CCCC1C(=O)O (centres undefined) [Enalapril]  6.83 min
24. COc1ccccc1OCCNCC(O)COc1cccc2[nH]c3ccccc3c12 (centres undefined) [Carvedilol]  6.91 min
25. CC1CN(C2CCC(C#N)(c3ccc(F)cc3)CC2)CCC1(C(=O)O)c1ccccc1 (centres undefined) [Levocabastine]  6.95 min
26. COc1ccc(CCNCCCC(C#N)(c2ccc(OC)c(OC)c2)C(C)C)cc1OC (centres undefined) [Verapamil-Nor]  6.96 min
27. CN(C)CCC=C1c2ccccc2COc2ccccc21 [Doxepin]  7.01 min
28. CCCc1nc(C)c2c(=O)[nH]c(-c3cc(C(=O)CN4CCN(CC)CC4)ccc3OCC)nn12 [Vardenafil-Acetyl]  7.16 min
29. CCCc1nn(C)c2c(=O)[nH]c(-c3cc(S(=O)(=O)N4CC(C)NC(C)C4)ccc3OCC)nc12 (centres undefined) [Sildenafil-Dimethyl]  7.6 min
30. CCOP(=O)(SC(C)CC)N1CCSC1=O (centres undefined) [Fosthiazate]  7.73 min
31. CCCC(C)(COC(N)=O)COC(=O)NC(C)C (centres undefined) [Carisoprodol]  7.99 min
32. O=C1NCC(=O)N2C1Cc1c([nH]c3ccccc13)C2c1ccc2c(c1)OCO2 (centres undefined) [Tadalafil-Nor]  7.99 min
33. CNc1nc(NC(C)C)nc(SC)n1 [Desmetryn]  8.17 min
34. COCCCCC(=NOCCN)c1ccc(C(F)(F)F)cc1 [Fluvoxamine]  8.28 min
35. c1ccc2c(c1)Sc1ccccc1N2CC1CN2CCC1CC2 (centres undefined) [Mequitazine]  8.29 min
36. CCC(C)C(=O)OC1CC(O)C=C2C=CC(C)C(CCC(O)CC(O)CC(=O)O)C21 (centres undefined) [Pravastatin]  8.36 min
37. COC(=O)Nc1nc2ccc(C(=O)c3ccc(F)cc3)cc2[nH]1 [Flubendazole]  8.65 min
38. CC12CCC3c4ccc(O)c(O)c4CCC3C1CCC2=O (centres undefined)  8.69 min
39. COc1nn(CSP(=S)(OC)OC)c(=O)s1 [Methidathion]  8.7 min
40. O=C1CN=C(c2ccccc2F)c2cc(Cl)ccc2N1 [Flurazepam-Desalkyl]  8.74 min
41. CC1COc2ccccc2N1C(=O)C(Cl)Cl (centres undefined) [Benoxacor]  8.87 min
42. COP(=S)(OC)SCN1C(=O)c2ccccc2C1=O [Phosmet]  8.94 min
43. CN(C)CCC=C1c2ccccc2Sc2ccc(Cl)cc21 [Chlorprotixene]  8.99 min
44. CC1(C)OC2CC3C4CCC5=CC(=O)C=CC5(C)C4C(O)CC3(C)C2(C(=O)CO)O1 (centres undefined) [Desonide]  9.04 min
45. CN(C)CCCn1c2c(c3ccccc31)CCCCCC2 [Iprindol]  9.26 min
46. CC12CCC3C(CCC4=CC(=O)CCC43C)C1CCC2=O (centres undefined) [A4 (4-androsten-3 17-dione)]  9.36 min
47. OC1(c2ccc(Cl)c(C(F)(F)F)c2)CCN(CCCC(c2ccc(F)cc2)c2ccc(F)cc2)CC1 [Penfluridol]  10.1 min
48. CC(=O)CC(c1ccc(Cl)cc1)c1c(O)c2ccccc2oc1=O (centres undefined) [Coumachlor]  10.2 min
49. CCOP(=S)(OCC)N1C(=O)c2ccccc2C1=O [Ditalimfos]  10.2 min
50. CCCCN1CC(=O)N2C(Cc3c([nH]c4ccccc34)C2c2ccc3c(c2)OCO3)C1=O (centres undefined) [Tadalafil-n-Butyl]  10.2 min
51. CCCSP(=O)(OCC)SCCC [Ethoprophos]  10.2 min
52. N#CC(CCc1ccc(Cl)cc1)(Cn1cncn1)c1ccccc1 (centres undefined) [Fenbuconazole]  10.4 min
53. CC1(C)C(C(=O)c2cn(CCN3CCOCC3)c3ccccc23)C1(C)C [A-796.260]  10.7 min
54. CC1(C)OC2CC3C4CCC5=CC(=O)CCC5(C)C4(F)C(O)CC3(C)C2(C(=O)CCl)O1 (centres undefined) [Halcinonide]  10.8 min
55. CCOP(=S)(OCC)Oc1cnc2ccccc2n1 [Quinalphos]  10.8 min
56. CCOP(=S)(OCC)Oc1cc(C)nc(C(C)C)n1 [Diazinon]  11 min
57. CCCCCn1cc(C(=O)c2ccccc2OC)c2ccccc21 [RCS-4-ortho]  11.2 min
58. CC(C)Oc1cc(-n2nc(C(C)(C)C)oc2=O)c(Cl)cc1Cl [Oxadiazon]  12.3 min
59. CCOP(=S)(OCC)Oc1ccc(Cl)cc1Cl [Dichlofenthion]  12.6 min
60. CCCCCn1cc(C(=O)c2ccc(OC)c3ccccc23)c2ccccc21 [JWH-081]  12.7 min
61. CCCSP(=S)(OCC)Oc1ccc(SC)cc1 (centres undefined) [Sulprofos (Bolstar)]  12.8 min
62. CCC(C)(C)c1ccc(CC(C)CN2CC(C)OC(C)C2)cc1 (centres undefined) [Amorolfine]  12.9 min
63. COP(=S)(Oc1cc(Cl)c(Br)cc1Cl)c1ccccc1 (centres undefined) [Leptophos]  13.8 min
64. CCC(C)C1OC2(CCC1C)CC1CC(CC=C(C)C(OC3CC(OC)C(OC4CC(OC)C(O)C(C)O4)C(C)O3)C(C)C=CC=C3COC4C(O)C(C)=CC(C(=O)O1)C34O)O2 (centres undefined) [Ivermectin B1a]  14.4 min
